Assay: SPF in vitro / UVA PF from UV transmittance through thin film on PMMA plates
Settings: for SPF in vitro mean / UV APF: 0.75 mg/cm^2; for SPF P / UV APF P: P (after irradiation, 800 J/m^2-eff)
Protocol: For determining the SPF in vitro value, the protection performance of compounds according to certain embodiments of the present technology, against erythemally-effective UV radiation, largely confined to the UVB (290-320 nm) and short-wavelength UVA (320-340) region, was calculated from the measured in vitro transmittance. The in vitro UVA PF, the UVA protection (320-400 nm), was calculated from the measured in vitro transmittance after irradiation. The Critical Wavelength Value was defined as the wavelength at which the integral of the spectral absorbance curve reached 90% of the integral over the UV spectrum from 290 to 400 nm. It has been settled that this value must be equal or over 370 nm so as to classify the product as broad-spectrum. The study consisted in a comparative assay of non-treated plates against plates treated with each of the compounds and was based on the evaluation of UV-transmittance through a thin film of sunscreen sample spread on a roughened substrate, before an after exposure to a controlled dose of UV radiation from a UV source. A Kontron 933 spectrophotometer equipped with a UV source, an integrating sphere and a monochromatic light able to deliver a flow of energy between 290 and 400 nm was used. The transmittance values were measured at 1 nm intervals. A 10-4 precision laboratory balance was used to control deposited product weight. The irradiation was provided by Sunset Atlas CPS+ with standard filter. Temperature regulation of the equipment was done in the range of 25-35° C. A pre-irradiation dose of 4 times 200 J/m^2-eff (800 J/m^2-eff) was delivered. The substrate was the material to which the sunscreen product was applied. Polymethylmethacrylate (PMMA) plates were used and were roughened on one side to a three-dimensional surface topography of 5 micrometers. Each compound was weighted and applied evenly to the PMMA plate with a 2-phase spreading to achieve a 0.75 mg/cm^2 weight/surface ratio. Spreading was performed with a light spreading move for approximately 30 seconds followed by spreading with greater pressure for approximately 30 seconds. The resulting sample was left to equilibrate for 15 minutes in the dark at room temperature to ensure a self-leveling of the formula. To account for lack of photostability, a pre-irradiation was necessary. The pre-irradiation dose was 4 minimal erythema dose (MEDs), equivalent to 800 J/m^2-eff. Five measurements of spectral irradiance transmitted for each wavelength through the PMMA plate covered with the sunscreen product were obtained after pre-irradiation of the sunscreen product [P1( ), P2( ), P3( ), P4( ) and P5( )]. For each compound, mean absorbance values were determined from at least three individual PMMA plates. To validate the accuracy of the results, a control product with an established SPF of 18-20, Lot 11T0313 was tested simultaneously with the compounds. SPF in vitro was calculated for each plate using the Colipa 2011 equation.

Row | Structure (SMILES) | SPF Change % [%] | ΔSPF | SPF in vitro mean | UV APF | SPF P | UV APF P
1 | COc1ccc(NC2C=C(NCC(=O)O)CC(C)(C)C2)cc1 (stereo not drawn) [Formula 73] | 61 | 12 | 32.31 | 16.05 | 27.60 | 13.08
2 | CCOC(=O)C1CSC2=C(CC(C)(C)C/C2=N\c2ccc(/N=N/c3ccccc3)cc2)N1 (stereo not drawn) [Formula 15] | 41 | 8 | 28.31 | 4.52 | 27.34 | 4.49
3 | COC(=O)C1CSC2=C(CC(C)(C)C/C2=N\c2ccc(OC)cc2)N1 (stereo not drawn) [Formula 43] | 4 | 1 | 20.84 | 4.02 | 18.59 | 3.94
4 | CCOC(=O)C1CSC2=C(CC(C)(C)C/C2=N\c2ccc(-c3ccccc3)cc2)N1 (stereo not drawn) [Formula 19] | 35 | 7 | 27.12 | 4.07 | 24.31 | 3.92

— patent US20240254096A1, “ULTRAVIOLET AND VISIBLE RADIATION ABSORBING COMPOUNDS” (ELKIMIA INC., priority 2021, published 2024)
